Data reported in patent US10174312B2 (priority 2014, dated 2019).
Read-outs that look alike come from different tables or passages of the source. Starred links: 1 amine or outer side, 2 acyl side, 3 side chain; linkers in the order of their positions; H or OH if unused. Positions of bridges follow the written chain, without caps; N, C: chain ends. Non-standard residues stand in square brackets, D forms with d. Residues, ends and D or L forms follow the SMILES beside them. Chains are numbered I, II in the order given. Actinocin(9to1) = Cc1c2oc3c(C)ccc(C(=O)[*:1])c3nc-2c(C(=O)[*:2])c(N)c1=O; NMeV = CN[C@H](C(=O)O)C(C)C; Sar = CNCC(=O)O

Columns and labels:
[1] = system: pool of the S. pombe heterozygous deletion strain; type: cell-based, Schizosaccharomyces pombe; details: for growth inhibition effect on the strain (sampling errors confirmed, FIG. 3): 20 generation subculture, expected vs sampled generation
Procedure: In the course of 10 generation sub-culture and 20 generation sub-culture, OD600 was measured to confirm the doubling time. Then, pool fitness by doubling time (PFDT) was calculated by the below mathematical formula 2. […] PFDT=doubling time of the pool not-treated with the drug/doubling time of the pool treated with the drug [Mathematical Formula 2]

[2] = system: S. cerevisiae heterozygous deletion strain library; details: cited from earlier work
[3] = system: S. pombe genome-wide heterozygous deletion strain; experiment: Chemical-genetic profile by DNA chip array (S. pombe compendium, DI-HI / ecDT screening); type: cell-based, Schizosaccharomyces pombe
Source text: To make the genetic compendium of S. pombe heterozygous deletion strain pool, DNA was separated from the strain by the conventional method, followed by chip-hybridization to quantify the growth of the strain (S. E. Pierce, E. L. Fung, D. F. Jaramillo, et al., Nat. Methods 3 (2006) 601-603).
Then, a short DNA barcode sequence in 20 bp long (named “TAG”) was inserted in the complementary region of the genomic DNA, followed by amplification with universal primers for the flanking sequence. The amount of the amplified TAG was judged by the growth of each strain, which was quantified by using the DNA chip (Affymetrix, USA) constructed with the complementary sequence of TAG.
The result of the quantitative DNA chip array was not modified by background correction, normalization, or perfect match (PM) and the mean value was used as raw intensity (Iraw). The parameter for preprocessing the raw intensity was calculated by DNA chip array according to the conventional method informed to those in the art. To calculate the minimum value of the comparative fitness by saturated intensity, modification was performed according to the below mathematical formula 3. The normalized constant was applied to each analysis based on the modified raw intensity. For the modification, chip array was repeated 5 times with the glycerol stock deletion strain pool and the mean value was obtained. The normalized final intensity was log 2-transformed for after analysis. Icorrected=Iraw×exp(−Irawα) [Mathematical Formula 3]
In the mathematical formula 3, ‘Icorrected’ indicates the modified intensity; ‘Iraw’ indicates the raw intensity; and ‘α’ indicates the variable of modification function calculated with UPTAG and DNATAG which are 0.0003412759 and 0.0002767581 respectively.
Error model was calculated according to the conventional method in order to calculate the fitness score of the drug treated S. pombe heterozygous deletion strain.
The compendium of the drug competitive growth experiment was used as the reference set. […] N and the line of drugs of 1 . . . j . . . M. The average and variable of the reference set of each strain were calculated by the below mathematical formula 4.
Z-scores and p-values of the 4400 heterozygous deletion strains were obtained with 47 drugs. The amount of each strain was represented by UPTAG and DNTAG inserted in the upstream and the downstream of the gene that had been eliminated from each strain. To investigate the significance of p-value presenting the detect of the growth in the drug treated strain, the expected intensity of UPTAG and DNTAG in the strain was calculated by the mathematical formula 5. From the mean value thereof, Z-score presenting the statistical distance was obtained. The obtained Z-score was applied to error function or standard normal distribution according to the mathematical formula 6, and the growth detect of each strain was judged by p-value in the range of 0˜1.
The growth defect by the presence or absence of each drug was investigated by the method illustrated in the schematic diagram of FIG. 5 to judge whether the heterozygous deletion gene was haplo-insufficient (HI) or haplo-sufficient (HS).

[4] = each drug at its Dose(M) of Table 2, 25° C.
[5] = each drug at its Dose(M) of Table 2, 25° C., PFDT = doubling time untreated pool / treated pool
[6] = second, lower dose 1.50E−08 M (Drug ID 67.2, 71.2)

## Cc1c2oc3c(C)ccc(C(=O)N[C@@H]4C(=O)N[C@H](C(C)C)C(=O)N5CCC[C@H]5C(=O)N(C)CC(=O)N(C)[C@@H](C(C)C)C(=O)O[C@@H]4C)c3nc-2c(C(=O)N[C@@H]2C(=O)N[C@H](C(C)C)C(=O)N3CCC[C@H]3C(=O)N(C)CC(=O)N(C)[C@@H](C(C)C)C(=O)O[C@@H]2C)c(N)c1=O [Actinomycin D] (I: T[dV]P[Sar][NMeV] / II: T[dV]P[Sar][NMeV]; ester I:1-I:C, II:1-II:C; linker I:N-II:N via Actinocin(9to1))
[1]
  growth inhibition effect on the strain (sampling errors confirmed, FIG. 3): growth inhibition effect
[1]; [4]
  PF2DT: PFDT of the sample obtained from 20 generation subculture: 0.709
[1]; [5]
  PF1DT: PFDT of the sample obtained from 10 generation subculture: 0.650

## OCCN(CCO)c1nc(N2CCCCC2)c2nc(N(CCO)CCO)nc(N3CCCCC3)c2n1 [Dipyridamole]
[1]
  growth inhibition effect on the strain (sampling errors confirmed, FIG. 3): growth inhibition effect

## C=C1[C@@H](C)[C@H]2[C@H](Cc3ccccc3)NC(=O)[C@]23OC(=O)/C=C/[C@H](O)CCC[C@@H](C)C/C=C/[C@H]3[C@@H]1O [Cytochalasin B]
[1]; [4]
  PF2DT: PFDT of the sample obtained from 20 generation subculture: 0.785
[1]; [5]
  PF1DT: PFDT of the sample obtained from 10 generation subculture: 0.954

## CN(C/C=C/C#CC(C)(C)C)Cc1cccc2ccccc12 [Terbinafine]
[2]; gene ERG1, dose 2.5 ug/ml
  −log (p) (Sce): −80.59
[2]; gene RRP1, dose 7.2 μM
  −log (p) (Sce): −4.515
[3]; S. pombe gene not printed (ortholog of RRP1), dose 0.03 μM
  −log (p) (Spo): −6.1
[3]; gene erg1, dose 0.015 μM
  −log (p) (Spo): −24.83
[3]; gene erg1, dose 0.03 μM
  −log (p) (Spo): −49.77

## CC[C@H]1OC(=O)[C@H](C)[C@@H](O[C@H]2C[C@@](C)(OC)[C@@H](O)[C@H](C)O2)[C@H](C)[C@@H](O[C@@H]2O[C@H](C)C[C@H](N(C)C)[C@H]2O)[C@](C)(O)C[C@@H](C)C(=O)[C@H](C)[C@@H](O)[C@]1(C)O [Erythromycin]
[2]; gene RIM2, dose 2.5 mg/ml
  −log (p) (Sce): −4.63
[3]; gene SPAC688.09, dose 250 μM
  −log (p) (Spo): −42.17

## CO[C@@]12[C@H](COC(N)=O)C3=C(C(=O)C(C)=C(N)C3=O)N1C[C@@H]1N[C@@H]12 [Mitomycin C]
[1]; [4]
  PF2DT: PFDT of the sample obtained from 20 generation subculture: 0.756
[1]; [5]
  PF1DT: PFDT of the sample obtained from 10 generation subculture: 0.840
[2]; gene SPC105, dose 1000
  −log (p) (Sce): −14.52
[2]; gene STH1, dose 1000
  −log (p) (Sce): −5.49
[2]; gene SWI6, dose 1000
  −log (p) (Sce): −5.228
[3]; gene cdc10, dose 80 μM
  −log (p) (Spo): −6.16
[3]; gene snf21, dose 80 μM
  −log (p) (Spo): −4.022

## COc1cccc2c1C(=O)c1c(O)c3c(c(O)c1C2=O)C[C@@](O)(C(=O)CO)C[C@@H]3O[C@H]1C[C@H](N)[C@H](O)[C@H](C)O1 [Doxorubicin]
[2]; gene RPA135, dose 62.5
  −log (p) (Sce): −6.279
[2]; gene TFP1, dose 62.5
  −log (p) (Sce): −8.374
[2]; gene VMA7, dose 62.5
  −log (p) (Sce): −28.85
[3]; gene rpa2, dose 24 μM
  −log (p) (Spo): −15.09
[3]; gene vma1, dose 24 μM
  −log (p) (Spo): −28.26
[3]; gene vma7, dose 24 μM
  −log (p) (Spo): −6.287

## O=C(CCCN1CCC(O)(c2ccc(Cl)cc2)CC1)c1ccc(F)cc1 [Haloperidol]
[2]; gene YLR243W, dose 125
  −log (p) (Sce): −7.301
[3]; gene fet5, dose 88.3 μM
  −log (p) (Spo): −4.402

## COc1ccc([C@@H]2Sc3ccccc3N(CCN(C)C)C(=O)[C@@H]2OC(C)=O)cc1.Cl [Dilitiazem hydrochloride]
[1]; [4]
  PF2DT: PFDT of the sample obtained from 20 generation subculture: 0.890
[1]; [5]
  PF1DT: PFDT of the sample obtained from 10 generation subculture: 0.896

## Cn1c(=O)c2[nH]cnc2n(C)c1=O [Theophylline anhydrous]
[1]; [4]
  PF2DT: PFDT of the sample obtained from 20 generation subculture: 0.924
[1]; [5]
  PF1DT: PFDT of the sample obtained from 10 generation subculture: 0.887

## C[C@H]1CCC/C=C/[C@@H]2C[C@H](O)C[C@H]2[C@H](O)/C=C/C(=O)O1 [Brefeldin A]
[1]; [4]
  PF2DT: PFDT of the sample obtained from 20 generation subculture: 0.986
[1]; [5]
  PF1DT: PFDT of the sample obtained from 10 generation subculture: 0.973

## Clc1ccccc1C(c1ccccc1)(c1ccccc1)n1ccnc1 [Clotrimazole]
[3]; gene erg11, dose 0.1 μM
  −log (p) (Spo): −13.15

## Tunicamycin
[1]; [4]
  PF2DT: PFDT of the sample obtained from 20 generation subculture: 1.027
[1]; [5]
  PF1DT: PFDT of the sample obtained from 10 generation subculture: 0.935
[1]; [6]
  PF1DT: PFDT of the sample obtained from 10 generation subculture: 0.954
  PF2DT: PFDT of the sample obtained from 20 generation subculture: 1.007
[2]; gene ALG7, dose 0.015 μM
  −log (p) (Sce): −5.227
[2]; gene ALG7, dose 150 ng/mL
  −log (p) (Sce): −24
[3]; gene gpt2 heterozygous deletion, dose 0.03125 μM
  −log (p) (Spo): −4.976

## CN(Cc1cnc2nc(N)nc(N)c2n1)c1ccc(C(=O)N[C@@H](CCC(=O)O)C(=O)O)cc1 [Methotrexate]
[2]; gene RSC8, dose 250
  −log (p) (Sce): −4.275
[3]; gene ssr2, dose 500 μM
  −log (p) (Spo): −4.28

## CCCCOc1ccc(C(=O)CCN2CCCCC2)cc1 [Dyclonine]
[1]
  growth inhibition effect on the strain (sampling errors confirmed, FIG. 3): growth inhibition effect
[2]; gene NAR1, dose 500
  −log (p) (Sce): −4.84
[2]; gene RPN12, dose 500
  −log (p) (Sce): −4.338
[2]; gene SEC24, dose 500
  −log (p) (Sce): −6.632
[3]; gene SPAC22F8.08, dose 68 μM
  −log (p) (Spo): −12.19
[3]; gene SPCC1450.10c, dose 68 μM
  −log (p) (Spo): −6.928
[3]; gene rpn12, dose 68 μM
  −log (p) (Spo): −40.98
